# Test results: patent US20250092345A1, “INTER ORGAN PLATFORM FOR MICROPHYSIOLOGICAL SYSTEM ON A CHIP” (THE TRUSTEES OF COLUMBIA UNIVERSITY IN THE CITY OF NEW YORK, priority 2020, published 2025)
# Assays:
# [1] = cited from earlier work
# [2] = tested on: engineered cardiac tissues; assay: Engineered cardiac tissues in isolation, linsitinib cardiotoxicity; assay type: cell-based, human; conditions: after linsitinib exposure, isolated
# From the text: After establishing the capability of TE-ES tumors to model drug efficacy, we evaluated the ability of cardiac tissues to determine the cardiotoxicity of linsitinib. Cardiac tissues were exposed to the same therapeutic concentration of linsitinib as bone tumors. […] Cardiotoxicity of linsitinib has been observed in clinical trials of other types of cancer, with patients presenting proarrhythmic events, like tachycardia (3.75-5% of patients) and atrial fibrillation (3.75-5%). We observed higher beat frequency and higher rate of proarrhythmic events per beat (around 36%) than in clinical studies (FIG. 32B and FIG. 32C). […]
# Cardiac tissues were studied using caffeine (50 mM in water; Sigma-Aldrich), amiodarone hydrochloride (2.418 µM in DMSO; Sigma-Aldrich), isoproterenol hydrochloride (a series of drug concentrations in water; Sigma-Aldrich) or doxorubicin hydrochloride (1 µM in DMSO; Sigma-Aldrich), all diluted in RPMI Medium 1640 supplemented with B-27[…]. Response to isoproterenol was analyzed 10 minutes after exposure to […] isoproterenol hydrochloride, diluted in RPMI Medium […] supplemented with B27[…]. […]
# To measure the cardiac contractility online, we took contractility videos of the tissues that were analyzed using the native MATLAB code we previously developed. Tissue contractility was measured by tracking the change in tissue area as a function of time. […]
# [3] = tested on: metastatic TE-ES (SK-N-MC); assay: Metastatic engineered ES bone tumor (TE-ES) in isolated culture, linsitinib; assay type: cell-based, human; conditions: 12 μM
# From the text: The effects of linsitinib were studied in an experiment performed according to the 3-week treatment cycle used in the clinical trial (3 days of drug administration followed by 4 days without the drug, in 3 cycles), with luminescence signal serving as an indicator of cancer cell viability within the TE-ES.
# Determining the effects of linsitinib on ES cells and osteoblasts within the engineered ES bone tumors across a 3-week clinical drug treatment regimen is shown in FIGS. 33A-33B. […] Supernatants were collected from each individual sample across the duration of the drug treatments and were analyzed for osteoblast function (OCN, OPN) and for cytotoxicity (LDH) (mean±s.e.m., n=3).
# Two weeks following the initiation of osteogenic differentiation, aggregates of ES tumor cells were prepared as described previously, using 0.3×10^6 cells per aggregate. After 1 week of culture, corresponding to the end of bone tissue culture (3 weeks), the primary ES cell aggregates were placed into the engineered bone constructs (3 aggregates per construct, placed apart of each other). Tumor models were established for two different types of primary ES cells: non-metastatic (RD-ES) and metastatic (SK-N-MC). Tissue engineered RD-ES and SK-N-MC tumors were cultured in the RPMI and EMEM media, respectively, supplemented with 10% FBS and 1% penicillin/streptomycin. Bone constructs cultured without tumor cell aggregates (TE-bone) in RPMI and EMEM media were used as controls.
# Specifically, linsitinib was dissolved at a 10 mM concentration in DMSO (Corning) and mixed in with the respective cell medium at a […] concentration unless otherwise noted. Vehicle treatments involved just the addition of DMSO at identical volumes as a control. Tissues were randomly assigned to experimental groups. Medium was changed every day.
# Cell viability was analyzed using a previously established protocol. Cancer cell viability was measured for GFP-Luciferase labelled cancer cells using ONE-Glo luciferase substrate that was prepared according to manufacturer's protocol (Promega). Samples were collected following 3, 7, and 21 days cycles of linsitinib treatment. Where noted, longitudinal cell viability was also assessed using luminescence, though at the cost of signal strength. Briefly, in vivo grade VivoGlo™ Luciferin (Promega) was made at a 200× stock concentration (30 mg/ml) in water, added to sample culture media at a 1:200 dilution, and scanned using a spectrophotometer (Biotek). Some of the IC50 values were determined using cell viability data generated using an MTT assay (RealTime-Glo™ MT Cell Viability Assay, Promega) that were analyzed according to manufacturer's protocol.
# Osteocalcin (OCN), osteopontin (OPN), and lactic acid dehydrogenase (LDH) secreted levels were all measured using a similar approach. […] LDH secretion was determined using a Lactate Dehydrogenase Assay Kit (Colorimetric; Abcam).
smiles,measurement,setting,value
C[C@]1(O)C[C@@H](c2nc(-c3ccc4ccc(-c5ccccc5)nc4c3)c3c(N)nccn32)C1 [linsitinib],half-life,[1],approximately 5 hours
same,inotropic response to subsequent isoproterenol,[2],not observed
same,cytotoxicity (LDH secretion),[3]; 3-week regimen,spiked
same,osteocalcin secretion,[3]; 3-week regimen,decreased
same,cancer cell population (luminescence) across the clinical regimen,[3]; 21-day treatment regimen,"decrease in drug efficacy, as the cancer cell population continued to expand"
same,drug response (luminescence),[3]; after 3 days,significant drug response
same,osteopontin secretion,[3]; throughout the 21 days,decreased
